Data from paper PMC10498452, “Targeted Protein Degradation: Advances, Challenges, and Prospects for Computational Methods” (Journal of Chemical Information and Modeling, 2023).

Tests used:
SMARCA2 = molecular target: T1, SMARCA2 (Homo sapiens, UniProt P51531); assay: HiBiT assay, degradation profiles; type: cell-based; conditions: VHL-recruiting degrader
T1 construct: luminescence-based reporter assays with endogeneous HiBiT-tagged proteins have been developed that yield degradation profiles; endogenous in cells
T1 sequence (P51531 whole entry): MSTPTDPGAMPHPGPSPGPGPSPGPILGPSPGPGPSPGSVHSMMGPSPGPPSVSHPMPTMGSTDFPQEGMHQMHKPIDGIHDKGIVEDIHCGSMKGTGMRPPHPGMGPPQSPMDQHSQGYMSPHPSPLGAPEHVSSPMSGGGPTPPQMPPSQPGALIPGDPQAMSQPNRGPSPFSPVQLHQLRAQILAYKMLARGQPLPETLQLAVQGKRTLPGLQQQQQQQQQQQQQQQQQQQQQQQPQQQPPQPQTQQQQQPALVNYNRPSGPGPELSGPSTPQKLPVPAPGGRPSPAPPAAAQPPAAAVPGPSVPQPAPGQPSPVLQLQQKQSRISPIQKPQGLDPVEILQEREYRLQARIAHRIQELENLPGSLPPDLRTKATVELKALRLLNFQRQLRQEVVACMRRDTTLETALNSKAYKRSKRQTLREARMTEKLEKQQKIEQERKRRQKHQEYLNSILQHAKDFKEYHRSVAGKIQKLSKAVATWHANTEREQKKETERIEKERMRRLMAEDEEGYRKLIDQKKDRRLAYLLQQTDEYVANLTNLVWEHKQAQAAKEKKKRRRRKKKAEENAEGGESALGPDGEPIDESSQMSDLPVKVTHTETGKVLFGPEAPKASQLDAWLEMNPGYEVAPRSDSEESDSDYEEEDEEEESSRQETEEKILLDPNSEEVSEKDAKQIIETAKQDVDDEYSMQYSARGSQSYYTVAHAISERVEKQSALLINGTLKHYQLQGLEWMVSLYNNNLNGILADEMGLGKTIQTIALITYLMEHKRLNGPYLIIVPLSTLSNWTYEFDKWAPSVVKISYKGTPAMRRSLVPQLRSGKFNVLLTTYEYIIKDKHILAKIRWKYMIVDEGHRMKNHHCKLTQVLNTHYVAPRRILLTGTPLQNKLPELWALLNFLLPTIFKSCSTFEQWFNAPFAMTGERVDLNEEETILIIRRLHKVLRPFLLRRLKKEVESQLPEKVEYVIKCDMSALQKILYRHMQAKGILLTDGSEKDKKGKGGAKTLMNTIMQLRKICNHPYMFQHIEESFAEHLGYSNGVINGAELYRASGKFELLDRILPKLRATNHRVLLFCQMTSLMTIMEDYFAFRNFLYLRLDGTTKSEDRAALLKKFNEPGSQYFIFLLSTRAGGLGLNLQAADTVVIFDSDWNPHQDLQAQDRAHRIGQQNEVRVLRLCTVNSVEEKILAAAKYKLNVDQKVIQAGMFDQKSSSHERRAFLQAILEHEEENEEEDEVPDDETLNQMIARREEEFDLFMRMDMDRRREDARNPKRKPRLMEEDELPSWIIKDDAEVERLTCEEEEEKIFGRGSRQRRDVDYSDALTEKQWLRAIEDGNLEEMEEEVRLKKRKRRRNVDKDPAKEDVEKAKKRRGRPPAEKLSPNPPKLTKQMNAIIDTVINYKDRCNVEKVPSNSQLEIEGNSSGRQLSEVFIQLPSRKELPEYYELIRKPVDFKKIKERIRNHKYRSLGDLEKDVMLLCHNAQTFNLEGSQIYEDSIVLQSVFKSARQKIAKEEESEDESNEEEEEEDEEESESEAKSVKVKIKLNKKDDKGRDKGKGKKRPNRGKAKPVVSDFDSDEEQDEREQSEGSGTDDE
Description: To monitor the intracellular degradation, luminescence-based reporter assays with endogeneous HiBiT-tagged proteins have been developed that yield degradation profiles, from which maximum degradation levels (Dmax) as well as the half-maximum degradation concentration (DC50) can be derived to estimate the potency of a degrader molecule,[48] which is instrumental in degrader design (see Section 4.2). As a matter of fact, variants of this technology are applied to characterize the different steps in TPD, such as target engagement, ternary complex formation, and target ubiquitination,[115] providing complementary kinetic information to the other experimental approaches discussed.
Figure 6 lists all of our designs in this study (Linkers 1–6) along with ACBI1, a previously optimized VHL-recruiting degrader of SMARCA2.[28] Informed by the random forest classifier, which was trained and validated on about 100 known compounds (model accuracy of 83%), the designs generally involve rigid linkers that contain (aromatic) ring structures with low molecular weight. […] By contrast, 34 designs that incorporated typical alkyl and PEG linkers spanning 4 to ∼20 atoms as well as known linker moieties, such as triazoles and phenyl rings (o, m, or p-substituted to provide different geometries), only produced two active degraders.
Figure 7 Experimental confirmation of degrader designs. […]

[1] = molecular target: SMARCA2-VHL ternary complex (Homo sapiens, UniProt P40337+P51531); assay: AlphaLISA assay measuring ternary complex formation; type: binding
Sequence of SMARCA2-VHL ternary complex (P51531 1373-1511 limits assumed): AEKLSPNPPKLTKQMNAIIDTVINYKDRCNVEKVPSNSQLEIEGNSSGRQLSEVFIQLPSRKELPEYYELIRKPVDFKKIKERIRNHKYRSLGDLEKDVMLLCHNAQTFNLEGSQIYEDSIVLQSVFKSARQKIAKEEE
Sequence of SMARCA2-VHL ternary complex (P40337 54-213 limits assumed): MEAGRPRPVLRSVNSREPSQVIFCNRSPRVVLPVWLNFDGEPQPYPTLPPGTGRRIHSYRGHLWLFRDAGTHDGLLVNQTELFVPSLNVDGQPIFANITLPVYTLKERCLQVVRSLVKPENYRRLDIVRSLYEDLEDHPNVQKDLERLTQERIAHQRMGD
Sequence of SMARCA2-VHL ternary complex (Q15369 17-112 partner limits assumed): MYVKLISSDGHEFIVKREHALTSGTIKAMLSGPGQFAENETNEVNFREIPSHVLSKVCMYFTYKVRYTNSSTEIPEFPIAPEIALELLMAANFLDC
Sequence of SMARCA2-VHL ternary complex (Q15370 1-104 partner limits assumed): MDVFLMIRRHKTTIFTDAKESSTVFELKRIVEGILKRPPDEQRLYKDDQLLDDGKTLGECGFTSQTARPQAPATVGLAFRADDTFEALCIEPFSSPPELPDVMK
Description: Competitive-binding and proximity-based assays can also probe the degree of degrader–POI engagement or ternary complex formation (Table 1), thus allowing the determination of binding affinities and cooperativity. These techniques measure changes in the polarization of a fluorescently labeled target protein upon binding to a degrader, as in fluorescence polarization (FP),[85] or detect intensity changes, upon ternary complex formation, in the fluorescence or luminescence signal emitted from beads tagged to the POI or E3 ligase, as in time-resolved Förster resonance energy-transfer (TR-FRET)[86] or in the amplified luminescent proximity homogeneous assay (ALPHA).[87] In the proximity ligation assay (PLA), a technology that is gaining popularity in TPD research, the signal is even further amplified through antibody-attached oligonucleotide hybridization.[88] These methods have been used in TPD studies for the identification of selective degraders and for the high-throughput screening of degrader designs.[39]−[41],[89] In particular, ALPHA has a high dynamic range and signal-to-noise ratio and, when applied in a titration experiment (usually set up as an immunoassay called AlphaLISA), it yields relative populations of ternary complexes as a function of degrader concentration and is routinely employed as a tool in degrader design projects (see Section 4.2). […]

Structure (SMILES): Cc1ncsc1-c1ccc(CNC(=O)[C@@H]2C[C@@H](O)CN2C(=O)[C@@H](NC(=O)C2(F)CC2)C(C)(C)C)c(OCCOc2ccc(CN3CCN(c4cc(-c5ccccc5O)nnc4N)CC3)cc2)c1 [ACBI1]
- DC50 (SMARCA2): 37 nM
- Dmax (SMARCA2): 94%
- AlphaLISA (% of control) [1]: 100 % of control
